Results taken from patent publication EP0908457B1, “3-(1,2-benzisothiazol- and isoxazol-5-Y1)-2,4(1H,3H)-pyrimidinedione or thione and 3-(1,2-benzisothiazol- and isoxazol-5-y1)-4(3H)-pyrimidinone or thione herbicidal agents” (BASF AKTIENGESELLSCHAFT, priority 1997, dated 1999).

Key:
[1] = system: Echinochloa oryzoides (Ard.) Fritsch.; experiment: Preemergence weed control under flooded paddy conditions, ECHORC (Watergrass (Calif.)); assay type: in vivo; conditions: flooded paddy; for ECHORC: preemergence weeds, herbicidal effect rating 0-9, three to four weeks after treatment; for herbicidal effect rating, ECHORC: preemergence, rated three to four weeks after treatment; for herbicidal effect rating, ECHORC: meaning of each grade not given here
Cyperus iria = experiment: Preemergence weed control under flooded paddy conditions, CYPIR (Rice Flatsedge); assay type: in vivo; conditions: flooded paddy; for CYPIR: preemergence weeds, herbicidal effect rating 0-9, three to four weeks after treatment; for herbicidal effect rating, CYPIR: preemergence, rated three to four weeks after treatment; for herbicidal effect rating, CYPIR: meaning of each grade not given here
[2] = system: Cyperus serotinus, Rottb.; experiment: Preemergence weed control under flooded paddy conditions, CYPSE (Flatsedge); assay type: in vivo; conditions: for CYPSE: preemergence weeds, herbicidal effect rating 0-9, three to four weeks after treatment; for herbicidal effect rating, CYPSE: preemergence, rated three to four weeks after treatment; for herbicidal effect rating, CYPSE: meaning of each grade not given here
[3] = system: Monochoria vaginalis, Presl.; experiment: Preemergence weed control under flooded paddy conditions, MOOVA (Monochoria); assay type: in vivo; conditions: preemergence weeds, flooded paddy, herbicidal effect rating 0-9, three to four weeks after treatment
[4] = system: Oryza sativa, (L.) Tebonnet; experiment: Rice tolerance to post-transplant applications under flooded paddy conditions (Example 187), ORYSAT (Rice, Tebonnet); conditions: for ORYSAT: herbicidal effect rating 0-9, three to four weeks after treatment; for herbicidal effect rating ORYSAT: rated three to four weeks after treatment
Sagittaria pygmaea, L. = experiment: Preemergence weed control under flooded paddy conditions, SAGPY (Arrowhead (Pygmaea)); assay type: in vivo; conditions: flooded paddy; for SAGPY: preemergence weeds, herbicidal effect rating 0-9, three to four weeks after treatment; for herbicidal effect rating, SAGPY: preemergence, rated three to four weeks after treatment; for herbicidal effect rating, SAGPY: meaning of each grade not given here

Compound | ECHORC ([1]; 0.0320 kg/ha) | ECHORC ([1]; 0.0620 kg/ha) | ECHORC ([1]; 0.1250 kg/ha) | ECHORC ([1]; 0.2500 kg/ha) | CYPIR (Cyperus iria; 0.0320 kg/ha) | CYPIR (Cyperus iria; 0.0620 kg/ha) | CYPIR (Cyperus iria; 0.1250 kg/ha) | CYPIR (Cyperus iria; 0.2500 kg/ha) | CYPSE ([2]; 0.0320 kg/ha) | CYPSE ([2]; 0.0620 kg/ha) | CYPSE ([2]; 0.1250 kg/ha) | CYPSE ([2]; 0.2500 kg/ha) | MOOVA ([3]; 0.0320 kg/ha) | MOOVA ([3]; 0.0620 kg/ha) | MOOVA ([3]; 0.1250 kg/ha) | MOOVA ([3]; 0.2500 kg/ha) | ORYSAT ([4]; 0.0320 kg/ha) | ORYSAT ([4]; 0.0620 kg/ha) | ORYSAT ([4]; 0.1250 kg/ha) | ORYSAT ([4]; 0.2500 kg/ha) | also measured
COCCOC(=O)c1nsc2ccc(-n3c(=O)cc(C(F)(F)F)n(C)c3=O)cc12 [Example 411, 1,2-Benzisothiazole-3-carboxylic acid, 5-[3,6-dihydro-3-methyl-2,6-dioxo-4-(trifluoromethyl)-1(2H)-pyrimidinyl]-, 2-methoxyethyl ester] | 0.0 | 0.0 | 0.0 | 6.0 | 0.0 | 2.0 | 3.0 | 9.0 | 0.0 | 2.0 | 7.0 | 9.0 | 9.0 | 9.0 | 9.0 | 9.0 | 0.0 | 0.0 | 2.0 | 5.0 | 
CN(/N=C/c1nsc2ccc(-n3c(=O)cc(C(F)(F)F)n(C)c3=O)cc12)c1ccccc1 [Example 412, 1,2-Benzisothiazole-3-carboxaldehyde, 5-[3,6-dihydro-3-methyl-2,6-dioxo-4-(trifluoromethyl)-1(2H)-pyrimidinyl]-, 3-(methylphenylhydrazone), (E)-] | 0.0 | 0.0 | 0.0 |  | 0.0 | 0.0 | 4.0 | 8.0 | 0.0 | 0.0 | 4.0 | 6.0 | 7.0 | 9.0 | 9.0 | 9.0 | 0.0 | 0.0 | 2.0 | 4.0 | 
CC(OS(=O)(=O)c1ccccc1)c1nsc2ccc(-n3c(=O)cc(C(F)(F)F)n(C)c3=O)cc12 (stereo not drawn) [Example 415, 2,4(1H,3H)-Pyrimidinedione, 3-[3-(1-hydroxyethyl)-1,2-benzisothiazol-5-yl]-1-methyl-6-(trifluoromethyl)-, benzenesulfonate (ester)] | 0.0 | 0.0 | 3.0 | 9.0 | 0.0 | 0.0 | 2.0 | 6.0 | 0.0 | 0.0 |  |  | 5.0 | 5.0 | 5.0 | 8.0 | 3.0 | 4.0 | 5.0 | 9.0 | 
CC(Cl)c1nsc2ccc(-n3c(=O)cc(C(F)(F)F)n(C)c3=O)cc12 (stereo not drawn) [Example 416, 2,4(1H,3H)-Pyrimidinedione, 3-[3-(1-chloroethyl)-1,2-benzisothiazol-5-yl]-1-methyl-6-(trifluoromethyl)-] | 0.0 | 3.0 | 3.0 | 9.0 | 4.0 | 4.0 | 4.0 | 8.0 | 0.0 | 0.0 | 0.0 | 3.0 | 7.0 | 7.0 | 7.0 | 9.0 | 6.0 | 7.0 | 9.0 | 9.0 | 
CC(c1ccccc1)S(=O)(=O)NC(=O)c1nsc2ccc(-n3c(=O)cc(C(F)(F)F)n(C)c3=O)cc12 (stereo not drawn) [Example 427, 1,2-Benzisothiazole-3-carboxamide, 5-[3,6-dihydro-3-methyl-2,6-dioxo-4-(trifluoromethyl)-1(2H)-pyrimidinyl]-N-[(alpha-methylbenzyl)-sulfonyl]-] | 7.0 | 7.0 | 9.0 | 9.0 | 7.0 | 7.0 | 7.0 | 9.0 | 0.0 | 0.0 |  | 4.0 |  |  |  |  | 0.0 | 0.0 | 1.0 | 3.0 | SAGPY (Sagittaria pygmaea, L.; 0.0320 kg/ha): 4.0; SAGPY (Sagittaria pygmaea, L.; 0.0620 kg/ha): 5.0; SAGPY (Sagittaria pygmaea, L.; 0.1250 kg/ha): 6.0; SAGPY (Sagittaria pygmaea, L.; 0.2500 kg/ha): 9.0
CCC(=O)COC(=O)COc1ccc(C)cc1-c1nsc2ccc(-n3c(=O)cc(C(F)(F)F)n(C)c3=O)cc12 [Example 577, Acetic acid, {{2-{5-[3,6-dihydro-3-methyl-2,6-dioxo-4-(trifluoromethyl)-1(2H)-pyrimidinyl]-1,2-benzisothiazol-3-yl}-p-tolyl}oxy}-, 2-oxobutyl ester] |  |  |  |  |  |  |  |  |  |  |  |  |  |  |  |  |  |  |  |  | herbicidal effect rating, ECHORC ([1]; Rate 0.0320 kg/ha): 6.0; herbicidal effect rating, ECHORC ([1]; Rate 0.0620 kg/ha): 7.0; herbicidal effect rating, ECHORC ([1]; Rate 0.1250 kg/ha): 7.0; herbicidal effect rating, ECHORC ([1]; Rate 0.2500 kg/ha): 9.0; herbicidal effect rating, CYPIR (Cyperus iria; Rate 0.0320 kg/ha): 2.0; herbicidal effect rating, CYPIR (Cyperus iria; Rate 0.0620 kg/ha): 4.0; herbicidal effect rating, CYPIR (Cyperus iria; Rate 0.1250 kg/ha): 7.0; herbicidal effect rating, CYPIR (Cyperus iria; Rate 0.2500 kg/ha): 9.0; herbicidal effect rating, CYPSE ([2]; Rate 0.0320 kg/ha): 0.0; herbicidal effect rating, CYPSE ([2]; Rate 0.0620 kg/ha): 3.0; herbicidal effect rating, CYPSE ([2]; Rate 0.1250 kg/ha): 3.0; herbicidal effect rating, CYPSE ([2]; Rate 0.2500 kg/ha): 3.0; herbicidal effect rating, SAGPY (Sagittaria pygmaea, L.; Rate 0.0320 kg/ha): 4.0; herbicidal effect rating, SAGPY (Sagittaria pygmaea, L.; Rate 0.0620 kg/ha): 6.0; herbicidal effect rating, SAGPY (Sagittaria pygmaea, L.; Rate 0.1250 kg/ha): 6.0; herbicidal effect rating, SAGPY (Sagittaria pygmaea, L.; Rate 0.2500 kg/ha): 6.0; herbicidal effect rating ORYSAT ([4]; Rate 0.0320 kg/ha): 4.0; herbicidal effect rating ORYSAT ([4]; Rate 0.0620 kg/ha): 5.0; herbicidal effect rating ORYSAT ([4]; Rate 0.1250 kg/ha): 5.0; herbicidal effect rating ORYSAT ([4]; Rate 0.2500 kg/ha): 9.0
Cn1c(C(F)(F)F)cc(=O)n(-c2ccc3snc(C(C#N)=Cc4cnc[nH]4)c3c2)c1=O [Example 595, 1,2-Benzisothiazole-3-acetonitrile, 5-[3,6-dihydro-3-methyl-2,6-dioxo-4-(trifluoromethyl)-1(2H)-pyrimidinyl]-alpha-(imidazol-5-ylmethylene)-] |  |  |  |  |  |  |  |  |  |  |  |  |  |  |  |  |  |  |  |  | herbicidal effect rating, ECHORC ([1]; Rate 0.0620 kg/ha): 0.0; herbicidal effect rating, ECHORC ([1]; Rate 0.1250 kg/ha): 3.0; herbicidal effect rating, ECHORC ([1]; Rate 0.2500 kg/ha): 4.0; herbicidal effect rating, CYPIR (Cyperus iria; Rate 0.0620 kg/ha): 0.0; herbicidal effect rating, CYPIR (Cyperus iria; Rate 0.1250 kg/ha): 2.0; herbicidal effect rating, CYPIR (Cyperus iria; Rate 0.2500 kg/ha): 4.0; herbicidal effect rating, CYPSE ([2]; Rate 0.1250 kg/ha): 0.0; herbicidal effect rating, SAGPY (Sagittaria pygmaea, L.; Rate 0.0620 kg/ha): 0.0; herbicidal effect rating, SAGPY (Sagittaria pygmaea, L.; Rate 0.1250 kg/ha): 0.0; herbicidal effect rating, SAGPY (Sagittaria pygmaea, L.; Rate 0.2500 kg/ha): 0.0; herbicidal effect rating ORYSAT ([4]; Rate 0.0620 kg/ha): 0.0; herbicidal effect rating ORYSAT ([4]; Rate 0.1250 kg/ha): 0.0; herbicidal effect rating ORYSAT ([4]; Rate 0.2500 kg/ha): 2.0
